Like-named read-outs stand apart in the source and are kept apart here.
Legend:
[1] = test system: CD69 expression on CD19+ B cells in human whole blood stimulated with anti-human IgD; assay: In Vitro whole blood CD69 Assay; type: cell-based
BTK = BTK (Homo sapiens (Human), UniProt Q06187); assay: In Vitro BTK Kinase Assay: Btk-PolyGAT-LS Assay; type: biochemical; details: BTK enzyme 0.25 nM, ATP 10 μM, polyGAT 100 nM, 30 minutes incubation, TRF readout; read-out: IC50
In short: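 Human BTK activity was measured with final 10 μM ATP and 100 nM polyGAT substrate in pH 7.5 Tris buffer with 10 mM MgCl2, DTT, Triton X-100 and casein.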

[2] = Homo sapiens, B-cell, human heparinized whole blood, anti-human IgD stimulation overnight, percentage of CD19+ B cells expressing CD69, flow cytometry, read-out: IC50
[3] = human heparinized whole blood, anti-human IgD stimulation overnight, percentage of CD19+ B cells expressing CD69, flow cytometry, read-out: IC50
[4] = Homo sapiens, B-cell, human heparinized whole blood, anti-human IgD stimulation overnight, percentage of CD19+ B cells expressing CD69, flow cytometry

BTK, sequence (Q06187 whole entry): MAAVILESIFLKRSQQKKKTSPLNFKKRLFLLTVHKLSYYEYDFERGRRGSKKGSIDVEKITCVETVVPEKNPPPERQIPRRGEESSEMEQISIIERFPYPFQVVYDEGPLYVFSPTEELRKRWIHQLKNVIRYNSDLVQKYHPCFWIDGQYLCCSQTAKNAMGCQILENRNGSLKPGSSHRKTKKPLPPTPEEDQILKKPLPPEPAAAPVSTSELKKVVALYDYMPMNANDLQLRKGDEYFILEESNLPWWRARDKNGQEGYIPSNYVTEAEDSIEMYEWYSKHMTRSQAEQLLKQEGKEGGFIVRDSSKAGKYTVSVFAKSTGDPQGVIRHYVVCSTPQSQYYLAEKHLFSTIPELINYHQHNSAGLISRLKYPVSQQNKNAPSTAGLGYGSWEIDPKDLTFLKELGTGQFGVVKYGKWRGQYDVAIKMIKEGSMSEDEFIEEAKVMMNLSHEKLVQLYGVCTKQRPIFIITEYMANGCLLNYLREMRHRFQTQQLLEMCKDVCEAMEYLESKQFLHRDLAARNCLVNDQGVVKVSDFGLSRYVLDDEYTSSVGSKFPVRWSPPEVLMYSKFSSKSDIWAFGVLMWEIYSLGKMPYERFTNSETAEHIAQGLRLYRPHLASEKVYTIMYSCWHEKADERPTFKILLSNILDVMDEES

## C#CC(=O)N1CCC[C@H](COc2nc(-c3cnn(C)c3)cn3nccc23)C1 [Example 16, (S)-1-(3-(((6-(1-methyl-1H-pyrazol-4-yl)pyrazolo[1,5-a]pyrazin-4-yl)oxy)methyl)piperidin-1-yl)prop-2-yn-1-one]
[1]; [2]
  IC50: < 1000 nM
BTK
  IC50: < 1 nM

## C=CC(=O)N1C[C@H]2C[C@@H](C1)[C@H]2COc1nc(-c2cnn(C)c2)cn2nccc12 [Example 128, 1-((1R,5S,6s)-6-(((6-(1-methyl-1H-pyrazol-4-yl)pyrazolo[1,5-a]pyrazin-4-yl)oxy)methyl)-3-azabicyclo[3.1.1]heptan-3-yl)prop-2-en-1-one]
[1]; [3]
  IC50: < 1000 nM
BTK
  IC50: < 1 nM

## C=CC(=O)N1C[C@H]2C[C@@H](C1)[C@@H]2COc1cc(-c2cnn(C)c2)cn2ncc(F)c12 (single isomer, unassigned) [Example 85, 1-((1R,5S,6r) or (1R,5S,6s)-6-(((3-fluoro-6-(1-methyl-1H-pyrazol-4-yl)pyrazolo[1,5-a]pyridin-4-yl)oxy)methyl)-3-azabicyclo[3.1.1]heptan-3-yl)prop-2-en-1-one]
[1]; [3]
  IC50: < 1000 nM
BTK
  IC50: < 1 nM

## C=CC(=O)N1CC[C@@H]2[C@H](Oc3nc(-c4cnn(C)c4)cn4nccc34)C(C)(C)[C@@H]21 [Example 172, 1-((1R,5S,6S)-7,7-dimethyl-6-((6-(1-methyl-1H-pyrazol-4-yl)pyrazolo[1,5-a]pyrazin-4-yl)oxy)-2-azabicyclo[3.2.0]heptan-2-yl)prop-2-en-1-one]
[1]; [2]
  IC50: 1000 to 10000 nM
BTK
  IC50: < 1 nM

## C=CC(=O)N(C)[C@@H]1CC[C@H](Oc2nc(-c3cnn(C)c3)cn3ncc(-c4ccccc4)c23)C1 [Example 173, N-methyl-N-((1R,3S)-3-(6-(1-methylpyrazol-4-yl)-3-phenyl-pyrazolo[1,5-a]pyrazin-4-yl)oxycyclopentyl)prop-2-enamide]
[1]; [2]
  IC50: 1000 to 10000 nM
BTK
  IC50: 1 to 10 nM

## CC#CC(=O)N[C@H]1CC[C@@H](Oc2cc(-c3cnn(C)c3)cn3nccc23)C1 [Example 164, N-[(1S,3R)-3-[6-(1-methylpyrazol-4-yl)pyrazolo[1,5-a]pyridin-4-yl]oxycyclopentyl]but-2-ynamide]
[1]; [2]
  IC50: 1000 to 10000 nM
BTK
  IC50: 1 to 10 nM

## C=CC(=O)N(C)[C@@H]1C[C@@](C)(Oc2nc(-c3cnn(C)c3)cn3nccc23)[C@H]1C (single isomer, unassigned) [Example 108]
[1]; [4]
  IC50: < 1000 nM
BTK
  IC50: < 1 nM

## C=CC(=O)N1CC2(Oc3nc(-c4cnn(C)c4)cn4nccc34)CC1(C)C2 [Example 124, 1-(1-methyl-4-((6-(1-methyl-1H-pyrazol-4-yl)pyrazolo[1,5-a]pyrazin-4-yl)oxy)-2-azabicyclo[2.1.1]hexan-2-yl)prop-2-en-1-one]
[1]; Homo sapiens, B-cell
  IC50: 1000 to 10000 nM
BTK
  IC50: 1 to 10 nM

## CC#CC(=O)N(C)[C@@H]1CCC[C@H](Oc2nc(-c3cnn(C)c3)cn3nccc23)C1 [Example 178, N-methyl-N-((1R,3S)-3-((6-(1-methyl-1H-pyrazol-4-yl)pyrazolo[1,5-a]pyrazin-4-yl)oxy)cyclohexyl)but-2-ynamide]
[1]; [2]
  IC50: 1000 to 10000 nM
BTK
  IC50: 10 to 1000 nM

## C[C@H]1O[C@@H]1C(=O)N1CC[C@@H]2[C@H]1C[C@]2(C)Oc1nc(-c2cnn(C)c2)cn2nccc12 (single isomer, unassigned) [Example 193]
[1]; [2]
  IC50: 1000 to 10000 nM
BTK
  IC50: 1 to 10 nM

## C=CC(=O)N1CCC[C@H]2[C@@H]1C[C@@]2(C)Oc1nc(-c2cnn(C)c2)cn2nccc12 (single isomer, unassigned) [Example 111]
[1]; [2]
  IC50: < 1000 nM
BTK
  IC50: < 1 nM

## C#CC(=O)N(C)C1CCCN(c2nc(-c3cnn(C)c3)cn3nccc23)C1 (centres unmarked) [Example 24, N-methyl-N-[1-[6-(1-methylpyrazol-4-yl)pyrazolo[1,5-a]pyrazin-4-yl]-3-piperidyl]prop-2-ynamide]
[1]; [2]
  IC50: > 10000 nM
BTK
  IC50: 10 to 1000 nM

## CN(C)C/C=C/C(=O)N(C)[C@H]1CCC[C@@H](Oc2nc(-c3cnn(C)c3)cn3ncc(F)c23)C1 [Example 93, (E)-4-(dimethylamino)-N-((1S,3R)-3-((3-fluoro-6-(1-methyl-1H-pyrazol-4-yl)pyrazolo[1,5-a]pyrazin-4-yl)oxy)cyclohexyl)-N-methylbut-2-enamide]
[1]; [2]
  IC50: < 1000 nM
BTK
  IC50: 1 to 10 nM

## C[C@@H]1O[C@H]1C(=O)N[C@H]1CC[C@@H](Oc2nc(-c3cnn(C)c3)cn3nccc23)C1 (single isomer, unassigned) [Example 148]
[1]; [2]
  IC50: < 1000 nM
BTK
  IC50: 1 to 10 nM

## C=CC(=O)N(C)[C@H]1C[C@](C)(Oc2nc(-c3cnn(C)c3)cn3nccc23)[C@@H]1C (single isomer, unassigned) [Example 109]
[1]; [4]
  IC50: < 1000 nM
BTK
  IC50: 1 to 10 nM

## C=CC(=O)N1CCC[C@@H](Oc2nc(-c3cnn(C)c3)cn3ncc(F)c23)CC1 [Example 61, 1-[(4R)-4-[3-fluoro-6-(1-methylpyrazol-4-yl)pyrazolo[1,5-a]pyrazin-4-yl]oxyazepan-1-yl]prop-2-en-1-one]
[1]; [2]
  IC50: < 1000 nM
BTK
  IC50: < 1 nM

## C=CC(=O)N(C)[C@@H]1COC[C@H](Oc2nc(-c3cnn(C)c3)cn3nccc23)C1 (racemic) [Example 96, N-methyl-N-((cis)-5-((6-(1-methyl-1H-pyrazol-4-yl)pyrazolo[1,5-a]pyrazin-4-yl)oxy)tetrahydro-2H-pyran-3-yl)acrylamide]
[1]; [2]
  IC50: < 1000 nM
BTK
  IC50: < 1 nM

## CC#CC(=O)N(C)[C@H]1CCC[C@@H](Oc2nc(-c3cnn(C)c3)cn3ncc(F)c23)C1 [Example 92, N-((1S,3R)-3-((3-fluoro-6-(1-methyl-H-pyrazol-4-yl)pyrazolo[1,5-a]pyrazin-4-yl)oxy)cyclohexyl)-N-methylbut-2-ynamide]
[1]; [2]
  IC50: 1000 to 10000 nM
BTK
  IC50: < 1 nM

## C=CC(=O)NC12CCCC(Oc3nc(-c4cnn(C)c4)cn4nccc34)(C1)C2 [Example 224, N-(5-((6-(1-methyl-1H-pyrazol-4-yl)pyrazolo[1,5-a]pyrazin-4-yl)oxy)bicyclo[3.1.1]heptan-1-yl)acrylamide]
[1]; [2]
  IC50: 1000 to 10000 nM
BTK
  IC50: < 1 nM

## C=CC(=O)N1CC(C)(C)OC(C)(COc2nc(-c3cnn(C)c3)cn3nccc23)C1 (single isomer, unassigned) [Example 120, 1-(2,2,6-trimethyl-6-(((6-(1-methyl-1H-pyrazol-4-yl)pyrazolo[1,5-a]pyrazin-4-yl)oxy)methyl)morpholino)prop-2-en-1-one]
[1]; [2]
  IC50: < 1000 nM
BTK
  IC50: < 1 nM

## C=CC(=O)N1CC[C@]2(C1)C[C@](C)(Oc1nc(-c3cnn(C)c3)cn3nccc13)C2 [Example 212, rac-1-((2s,4r)-2-methyl-2-((6-(1-methyl-1H-pyrazol-4-yl)pyrazolo[1,5-a]pyrazin-4-yl)oxy)-6-azaspiro[3.4]octan-6-yl)prop-2-en-1-one]
[1]; [3]
  IC50: 1000 to 10000 nM
BTK
  IC50: 1 to 10 nM

## C=CC(=O)N1CCC[C@@H](Oc2cc(-c3cnn(C)c3)cn3nccc23)CC1 [Example 66, 1-[(4R)-4-[6-(1-methylpyrazol-4-yl)pyrazolo[1,5-a]pyridin-4-yl]oxyazepan-1-yl]prop-2-en-1-one]
[1]; [2]
  IC50: < 1000 nM
BTK
  IC50: < 1 nM

## C=CC(=O)NC12CCC(Oc3nc(-c4cnn(C)c4)cn4nccc34)(C1)C2 [Example 98, N-(4-((6-(1-methyl-1H-pyrazol-4-yl)pyrazolo[1,5-a]pyrazin-4-yl)oxy)bicyclo[2.1.1]hexan-1-yl)acrylamide]
[1]; [2]
  IC50: 1000 to 10000 nM
BTK
  IC50: < 1 nM

## C=CC(=O)N[C@H]1C[C@@](C)(Oc2nc(-c3cnn(C)c3)cn3nccc23)C1 [Example 228, N-((1s,3s)-3-methyl-3-((6-(1-methyl-1H-pyrazol-4-yl)pyrazolo[1,5-a]pyrazin-4-yl)oxy)cyclobutyl)acrylamide]
[1]; [2]
  IC50: < 1000 nM
BTK
  IC50: < 1 nM

## C#CC(=O)N(C)C1CCCN(c2nc(-c3cnn(C)c3)cc3nccn23)C1 (centres unmarked) [Example 23, N-methyl-N-[1-[7-(1-methylpyrazol-4-yl)imidazo[1,2-c]pyrimidin-5-yl]-3-piperidyl]prop-2-ynamide]
[1]; [2]
  IC50: > 10000 nM
BTK
  IC50: 10 to 1000 nM

## C=CC(=O)N1CC(Oc2nc(-c3cnn(C)c3)cn3nccc23)C1 [Example 9, 1-(3-((6-(1-methyl-1H-pyrazol-4-yl)pyrazolo[1,5-a]pyrazin-4-yl)oxy)azetidin-1-yl)prop-2-en-1-one]
[1]; [2]
  IC50: > 10000 nM
BTK
  IC50: 10 to 1000 nM

## C#CC(=O)N1CCC(Oc2nc(-c3cnn(C)c3)cn3nccc23)CC1 [Example 1, 1-[4-[6-(1-methylpyrazol-4-yl)pyrazolo[1,5-a]pyrazin-4-yl]oxy-1-piperidyl]prop-2-yn-1-one]
[1]; [2]
  IC50: > 10000 nM
BTK
  IC50: 1 to 10 nM

## C#CC(=O)N1CC[C@@H](Oc2nc(-c3cnn(C)c3)cn3nccc23)C1 [Example 13, (R)-1-(3-((6-(1-methyl-1H-pyrazol-4-yl)pyrazolo[1,5-a]pyrazin-4-yl)oxy)pyrrolidin-1-yl)prop-2-yn-1-one]
[1]; [2]
  IC50: < 1000 nM
BTK
  IC50: < 1 nM

## C=CC(=O)N1CCC[C@@H](Oc2nc(-c3cn(C)nc3C)cn3ncnc23)CC1 [Example 70, 1-[(4R)-4-[[6-(1,3-dimethylpyrazol-4-yl)-[1,2,4]triazolo[1,5-a]pyrazin-8-yl]oxy]azepan-1-yl]prop-2-en-1-one]
[1]; [2]
  IC50: 1000 to 10000 nM
BTK
  IC50: 1 to 10 nM

## C=CC(=O)N1CCC[C@@H](Nc2nc(-c3cnn(C)c3)cn3nccc23)CC1 (single isomer, unassigned) [Example 160]
[1]; [2]
  IC50: 1000 to 10000 nM
BTK
  IC50: < 1 nM

## C=CC(=O)N1CCC[C@](F)(COc2nc(-c3cnn(C)c3)cn3nccc23)C1 [Example 187, (R)-1-(3-fluoro-3-(((6-(1-methyl-1H-pyrazol-4-yl)pyrazolo[1,5-a]pyrazin-4-yl)oxy)methyl)piperidin-1-yl)prop-2-en-1-one]
[1]; [2]
  IC50: < 1000 nM
BTK
  IC50: < 1 nM
